The record followed here is patent US9382306B2, “Octapeptide compounds derived from somatostatin and the therapeutic use thereof” (IPSEN PHARMA S.A.S., priority 2008, dated 2016).

Data set [1] addresses T1, somatostatin receptors sub-type 2 (Homo sapiens, UniProt P30874).
T1 construct: expressed in transfected cells; membrane preparations
Kind of data set: Affinity for somatostatin receptors: inhibition of [125I-Tyr11]SRIF-14 binding to membranes of transfected CHO-K1 cells. Conditions: competitive inhibition of [125I-Tyr11]SRIF-14 binding, 37° C. As for the experimental part: (§1) The affinity of the compounds of the invention for the somatostatin receptors is determined by measurement of the inhibition of the bond of [125I-Tyr11]SRIF-14 to membrane preparations of transfected CHO-K1 cells.
(§2) The CHO-K1 cells expressing in a stable fashion each of the sub-types of somatostatin receptors are collected with 0.5 mM of EDTA and centrifuged at 500 g for 5 minutes at 4° C. The pellet is re-suspended in phosphate buffer (PBS) and centrifuged at 500 g for 5 minutes at 4° C. The pellet is re-suspended in Tris 50 mM buffer at pH 7.4 and centrifuged at 500 g for 5 minutes at 4° C. The cells are lyzed by sonication and centrifuged at 39,000 g for 10 minutes. The pellet is re-suspended in Tris 50 mM buffer at pH 7.4, an aliquot is removed for assaying the proteins and the remainder is centrifuged at 50,000 g for 10 minutes. The membranes obtained in this last pellet are stored at −80° C.
(§3) Measurement of the competitive inhibition of the bond of [125I-Tyr11]SRIF-14 (Perkin Elmer) on each of the sub-types of somatostatin receptors is carried out in duplicate in 96-well polypropylene plates. The cell membranes (5 to 20 µg of proteins/well) are incubated with [125I-Tyr11]SRIF-14 (0.05 to 0.1 nM) for 50 to 90 minutes at 37° C. (conditions dependent on the sub-type of receptor) in a HEPES buffer medium 50 mM pH 7.4, comprising 0.2% bovine serum albumin (BSA), MgCl2 5 mM, Trasylol 200 KIU/mL, Bacitracin 0.02 mg/mL, phenylmethylsulphonyl fluoride 0.02 mg/mL.
(§4) The bound [125I-Tyr11]SRIF-14 is separated from the free [125I-Tyr11]SRIF-14 by filtration through GF/C glass fibre plates (Unifilter, Perkin Elmer) pre-impregnated with 0.1% polyethylenimine (P.E.I.), using a Filtermate 96 (Perkin Elmer). The filters are washed with Tris-HCl buffer 50 mM, pH 7.4 at 4° C. and the radioactivity present is determined using a counter (TopCount, Perkin Elmer).
(§5) The data are analyzed by computer-assisted non-linear regression using XLfit 4.2 (IDBS) software.

Data set [2] has as its target T2, somatostatin receptors sub-type 5 (Homo sapiens, UniProt P35346).
T2 construct: expressed in transfected cells; membrane preparations
Described as above. Conditions: competitive inhibition of [125I-Tyr11]SRIF-14 binding, 37° C. As for the experimental part:
as §1, §2, §3, §4, §5

A short description of data set [3]: Self-assembly study: putting peptides in solution in water, macroscopic, ATR-FTIR, TEM and SAXS analysis. It is filed as physicochemical. Conditions: 3 to 15% by mass of peptide in water; form and diameter of the self-assembled structure, or soluble / insoluble. The source says:
The procedure used comprises three stages: putting the peptides in solution and macroscopic analysis; spectroscopic and microscopic analyses of the structures formed and by small-angle X-ray scattering (SAXS) analyses.
The first stage of the characterization of the derivatives is the production of a range of concentrations from 3 to 15% by mass of peptide in water. Gelling of the solution indicates the presence of self-assembled structures which can be nanotubes but can also be fibres or other self-organised structures.
The object of this stage is to verify the presence of self-assembled structures, to characterize their self-assembly and to visualize them by microscopy.
Infrared spectroscopy makes it possible to obtain information on the method of stacking the peptides in the self-assemblies. The amide band spectrum, reflecting the absorption spectra of the carbonyl functions of the peptide backbone, gives information on the type of hydrogen bond in which these groups are involved (H bonds leading to the formation of the […], a helix or also a loop or random conformation) and consequently on the secondary and tertiary structure of the peptides in solution and self-assembled. The attenuated total reflection technique (ATR-FTIR) uses a crystal on which the solid or liquid sample is deposited. The infrared light is guided through this crystal at an angle which allows it to be reflected several times inside the crystal, which increases the sensitivity of the technique. Due to the performance of this device, it is then possible perform measurements on relatively dilute solutions. The beam penetrates a few microns into the sample deposited on the crystal, which means that only the molecules/structures which are deposited on the surface of the crystal are analyzed. Moreover, this technique is non-destructive.
The assembled structures are then visualized by transmission electron microscopy (TEM). This very powerful technique, allowing magnifications greater than 500,000 times, is one of the few techniques capable of visualizing structures on the nanometric scale. The sample is subjected to an electron beam. The visualization of the transmitted beam is produced either by a photoluminescent screen, or by a CCD camera. The sample in the microscope being under vacuum, it is samples dried after staining with uranyl salts in order to increase contrast which are observed.
The peptide in solution is firstly deposited on a copper grid covered with a film of carbon. After deposition of the materiel, the excess liquid is eliminated. In the same way, the solution of colorant, in our case uranyl acetate, is deposited on the grid, the excess is eliminated and the grid is dried in the open air. It can then be introduced into the microscope.
The samples, liquids or gels, are introduced into a capillary column and subjected to a monochromatic flow of X-rays. The intensity diffused is measured as a function of the scattering angle with respect to the incident angle.
The diffusion patterns thus obtained must be the subject of a correlation with a close theoretical model of the structures present in the sample. In the case where the peptides have self-assembled in the form of hollow nanotubes, the modelling of the experimental data with the theoretical diffusion produced by infinitely long hollow columns makes it possible to determine with precision the diameter of the columns and to estimate their wall thickness (Valery et al. in Biophysical journal, 2004, 86(4), 2484-2501 and Proc. Natl. Acad. Sci., 2003, 100(18) 10258-10262). For polydisperse, nanotubular, fibrilar, micellar or lamellar self-assemblies, it is the correlation of the spectroscopic, microscopic and XR scattering data which makes it possible to estimate a size range for the objects observed.

The structures appear in SMILES notation. “And” between values parts separate entries of the source, which are not always exact repeats. Equal values may be shown once. Bridge positions count the residues as written; N and C are the ends. Square brackets hold non-standard residues; d marks the D form. Peptide text beside a SMILES is read from it. ξ: configuration not given here. dPhe(4-NO2) = N[C@H](Cc1ccc([N+](=O)[O-])cc1)C(=O)O; dPhe(3,5-F2) = N[C@H](Cc1cc(F)cc(F)c1)C(=O)O; dPhe(3-Br) = N[C@H](Cc1cccc(Br)c1)C(=O)O; dPhe(2-Br) = N[C@H](Cc1ccccc1Br)C(=O)O; 2Nal = N[C@@H](Cc1ccc2ccccc2c1)C(=O)O; d2Nal = N[C@H](Cc1ccc2ccccc2c1)C(=O)O; dPhe(2-F) = N[C@H](Cc1ccccc1F)C(=O)O; dThr(3ξ) = CC(O)[C@@H](N)C(=O)O; Thr(3ξ) = CC(O)[C@H](N)C(=O)O

T2 sequence (P35346 whole entry): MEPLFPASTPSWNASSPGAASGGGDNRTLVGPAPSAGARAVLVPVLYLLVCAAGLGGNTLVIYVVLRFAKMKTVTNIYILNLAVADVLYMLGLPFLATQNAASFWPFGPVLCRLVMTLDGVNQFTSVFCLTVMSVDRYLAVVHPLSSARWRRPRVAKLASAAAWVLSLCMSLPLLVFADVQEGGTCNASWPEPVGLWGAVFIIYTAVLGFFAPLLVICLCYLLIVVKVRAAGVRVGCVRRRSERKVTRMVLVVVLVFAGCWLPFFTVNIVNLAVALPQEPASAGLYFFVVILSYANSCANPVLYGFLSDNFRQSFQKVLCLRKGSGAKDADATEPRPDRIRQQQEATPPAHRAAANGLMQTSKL
T1 sequence (P30874 whole entry): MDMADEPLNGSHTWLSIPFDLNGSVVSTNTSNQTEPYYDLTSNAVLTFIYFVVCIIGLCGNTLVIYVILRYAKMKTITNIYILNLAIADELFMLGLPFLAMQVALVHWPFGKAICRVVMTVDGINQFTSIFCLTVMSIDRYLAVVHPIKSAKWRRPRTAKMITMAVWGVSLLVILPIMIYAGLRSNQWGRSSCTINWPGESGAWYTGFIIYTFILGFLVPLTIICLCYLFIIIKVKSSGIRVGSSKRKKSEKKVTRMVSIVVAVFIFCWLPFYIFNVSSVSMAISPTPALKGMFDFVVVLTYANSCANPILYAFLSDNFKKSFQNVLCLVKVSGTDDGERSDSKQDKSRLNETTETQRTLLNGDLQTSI

With `CC(C)[C@@H]1NC(=O)[C@H](CCCCN)NC(=O)[C@@H](Cc2ccccc2Br)NC(=O)[C@H](Cc2ccc(O)cc2)NC(=O)[C@@H](NC(=O)[C@H](N)Cc2ccc3ccccc3c2)CSSC[C@@H](C(=O)N[C@H](C(N)=O)C(C)O)NC1=O` (stereo partly drawn) [Example 19, H-D-2-Nal^1-cyclo(Cys^2-Tyr^3-o-Br-D-Phe^4-Lys^5-Val^6-Cys^7)-Thr^8-NH2.2 CH3COOH] (H-[d2Nal]CY[dPhe(2-Br)]KVC[Thr(3ξ)]-NH2; disulfide 2-7), the Ki in data set [1] was no more than 5 nM; in data set [2], no more than 100 nM.
With `CC(C)[C@@H]1NC(=O)[C@H](CCCCN)NC(=O)[C@@H](Cc2cc(F)cc(F)c2)NC(=O)[C@H](Cc2ccc(O)cc2)NC(=O)[C@@H](NC(=O)[C@H](N)Cc2ccc3ccccc3c2)CSSC[C@@H](C(=O)N[C@H](C(N)=O)C(C)O)NC1=O` (stereo partly drawn) [Example 17, H-D-2-Nal^1-cyclo(Cys^2-Tyr^3-3,5-diF-D-Phe^4-Lys^5-Val^6-Cys^7)-Thr^8-NH2.2 CH3COOH] (H-[d2Nal]CY[dPhe(3,5-F2)]KVC[Thr(3ξ)]-NH2; disulfide 2-7), the Ki in data set [1] was no more than 5 nM; in data set [2] it was no more than 100 nM. Moreover, the Assembly result in data set [3] was “monodisperse peptide nanotubes and 15.3 nm monodisperse nanotube”.
Turning to `CC(C)[C@@H]1NC(=O)[C@H](CCCCN)NC(=O)[C@@H](Cc2ccc(/N=N/c3ccccc3)cc2)NC(=O)[C@H](Cc2ccc(O)cc2)NC(=O)[C@@H](NC(=O)[C@H](N)Cc2ccc3ccccc3c2)CSSC[C@@H](C(=O)N[C@H](C(N)=O)[C@@H](C)O)NC1=O` [Example 25, H-D-2-Nal^1-cyclo(Cys^2-Tyr^3-p-phenylazo-D-Phe^4-Lys^5-Val^6-Cys^7)-Thr^8-NH2.2 CH3COOH], the Ki in data set [1] was no more than 50 nM; in data set [2] it was no more than 1000 nM. In data set [3], this compound came in with an Assembly of 10 nm monodisperse nanotube.
`CC(C)[C@@H]1NC(=O)[C@H](CCCCN)NC(=O)[C@@H](Cc2cccs2)NC(=O)[C@H](Cc2ccc(O)cc2)NC(=O)[C@@H](NC(=O)[C@H](N)Cc2ccc3ccccc3c2)CSSC[C@@H](C(=O)N[C@H](C(N)=O)C(C)O)NC1=O` (stereo partly drawn) [Example 2, H-D-2-Nal^1-cyclo(Cys^2-Tyr^3-β-(2-thienyl)-D-Ala^4-Lys^5-Val^6-Cys^7)-Thr^8-NH2.2 CH3COOH]: the Ki is no more than 50 nM in data set [1] and no more than 1000 nM in data set [2]. The Assembly entry in data set [3] was “monodisperse peptide nanotubes and 12 nm monodisperse nanotube”.
Consider `CC(C)[C@@H]1NC(=O)[C@H](CCCCN)NC(=O)[C@@H](Cc2ccc([N+](=O)[O-])cc2)NC(=O)[C@H](Cc2ccc(O)cc2)NC(=O)[C@@H](NC(=O)[C@H](N)Cc2ccc3ccccc3c2)CSSC[C@@H](C(=O)N[C@H](C(N)=O)C(C)O)NC1=O` (stereo partly drawn) [Example 20, H-D-2-Nal^1-cyclo(Cys^2-Tyr^3-p-nitro-D-Phe^4-Lys^5-Val^6-Cys^7)-Thr^8-NH2.2 CH3COOH] (H-[d2Nal]CY[dPhe(4-NO2)]KVC[Thr(3ξ)]-NH2; disulfide 2-7), for which the values for the Ki in data set [1] and in data set [2] were no more than 5 nM and no more than 1000 nM, respectively. For the same compound, in data set [3], the Assembly entry is “monodisperse peptide nanotubes and 17.6 nm monodisperse nanotube”.
For the compound `CC(C)[C@@H]1NC(=O)[C@H](CCCCN)NC(=O)[C@@H](Cc2cccc(Br)c2)NC(=O)[C@H](Cc2ccc(O)cc2)NC(=O)[C@@H](NC(=O)[C@H](N)Cc2ccc3ccccc3c2)CSSC[C@@H](C(=O)N[C@H](C(N)=O)C(C)O)NC1=O` (stereo partly drawn) [Example 18, H-D-2-Nal^1-cyclo(Cys^2-Tyr^3-m-Br-D-Phe^4-Lys^5-Val^6-Cys^7)-Thr^8-NH2.2 CH3COOH] (H-[d2Nal]CY[dPhe(3-Br)]KVC[Thr(3ξ)]-NH2; disulfide 2-7), the Ki was no more than 5 nM in data set [1] and no more than 100 nM in data set [2]. Moreover, the Assembly in data set [3] was 18.4-18.8 nm monodisperse.
Taken in the same sequence, the figures for `CC(C)[C@@H]1NC(=O)[C@H](CCCCN)NC(=O)[C@@H](CC2CCCCC2)NC(=O)[C@H](Cc2ccc(O)cc2)NC(=O)[C@@H](NC(=O)[C@H](N)Cc2ccc3ccccc3c2)CSSC[C@@H](C(=O)N[C@H](C(N)=O)[C@@H](C)O)NC1=O` [Example 24, H-D-2-Nal^1-cyclo(Cys^2-Tyr^3-cyclohexyl-D-Ala^4-Lys^5-Val^6-Cys^7)-Thr^8-NH2.2 CH3COOH] were no more than 5 nM, no more than 100 nM and “fibres”.
As to `CC(C)[C@@H]1NC(=O)[C@H](CCCCN)NC(=O)[C@@H](Cc2ccccc2F)NC(=O)[C@H](Cc2ccc(O)cc2)NC(=O)[C@@H](NC(=O)[C@H](N)Cc2ccc3ccccc3c2)CSSC[C@@H](C(=O)N[C@H](C(N)=O)C(C)O)NC1=O` (stereo partly drawn) [Example 16, H-D-2-Nal^1-cyclo(Cys^2-Tyr^3-o-F-D-Phe^4-Lys^5-Val^6-Cys^7)-Thr^8-NH2.2 CH3COOH] (H-[d2Nal]CY[dPhe(2-F)]KVC[Thr(3ξ)]-NH2; disulfide 2-7), the inhibition constant Ki in data set [1] is no more than 5 nM; in data set [2], no more than 1000 nM. Besides, the Assembly entry in data set [3] is “monodisperse peptide nanotubes and 17 nm monodisperse nanotube”.
`CC(C)[C@H]1NC(=O)[C@@H](CCCCN)NC(=O)[C@H](Cc2c[nH]c3ccccc23)NC(=O)[C@@H](Cc2ccc(O)cc2)NC(=O)[C@H](NC(=O)[C@@H](N)Cc2ccc3ccccc3c2)CSSC[C@H](C(=O)N[C@@H](C(N)=O)C(C)O)NC1=O` (stereo partly drawn) [Example 23, H-2-Nal^1-cyclo(D-Cys^2-D-Tyr^3-Trp^4-D-Lys^5-D-Val^6-D-Cys^7)-D-Thr^8-NH2.2 CH3COOH] (H-[2Nal][dC][dY]W[dK][dV][dC][dThr(3ξ)]-NH2; disulfide 2-7) displayed an Assembly in data set [3] of 24.4 nm monodisperse nanotube.
The same measure, in the same setting: as for `COCCOCCOc1ccc(C[C@H]2NC(=O)[C@H](Cc3ccc(O)cc3)NC(=O)[C@@H](NC(=O)[C@H](N)Cc3ccc4ccccc4c3)CSSC[C@@H](C(=O)N[C@H](C(N)=O)[C@@H](C)O)NC(=O)[C@H](C(C)C)NC(=O)[C@H](CCCCN)NC2=O)cc1` [Example 22, H-D-2-Nal^1-cyclo(Cys^2-Tyr^3-p-2-(2-methoxyethoxy)ethoxy)-D-Phe^4-Lys^5-Val^6-Cys^7)-Thr^8-NH2].2 CH3COOH], the figure is 17.4 nm monodisperse nanotube.

The term Ki denotes the equilibrium dissociation constant of an inhibitor or competing ligand from its target. Higher therefore signals weaker binding.
